# Legend:
# kyn-3-OHase = conditions: systemic administration; cited from earlier work
# rat kyn-3-OHase = target: T1, rat kyn-3-OHase (Rattus norvegicus, UniProt O88867); test: Inhibition of rat kyn-3-OHase expressed in Xenopus laevis oocytes; type: biochemical; conditions: homogenates of oocytes injected with the clone, 50 μM L-kyn
# T1 construct: encodes a deduced protein of 478 amino acid residues; expressed in transfected cells; host or cells: Xenopus laevis oocytes injected with cRNA of the cloned rat kidney cDNA (homogenate)
# From the text: Kyn-3-OHase activity was quantified by the conversion of L-kyn to 3-OH-Kyn.
# brain [1] = conditions: peripherally formed; cited from earlier work
# rats = conditions: administration to rats; cited from earlier work
# [2] = test system: excitatory amino acid receptor; conditions: sites normally activated by glutamate and aspartate; cited from earlier work
# glycine modulatory site = conditions: cited from earlier work
# brain [3] = conditions: cited from earlier work
# T1 sequence (O88867 whole entry): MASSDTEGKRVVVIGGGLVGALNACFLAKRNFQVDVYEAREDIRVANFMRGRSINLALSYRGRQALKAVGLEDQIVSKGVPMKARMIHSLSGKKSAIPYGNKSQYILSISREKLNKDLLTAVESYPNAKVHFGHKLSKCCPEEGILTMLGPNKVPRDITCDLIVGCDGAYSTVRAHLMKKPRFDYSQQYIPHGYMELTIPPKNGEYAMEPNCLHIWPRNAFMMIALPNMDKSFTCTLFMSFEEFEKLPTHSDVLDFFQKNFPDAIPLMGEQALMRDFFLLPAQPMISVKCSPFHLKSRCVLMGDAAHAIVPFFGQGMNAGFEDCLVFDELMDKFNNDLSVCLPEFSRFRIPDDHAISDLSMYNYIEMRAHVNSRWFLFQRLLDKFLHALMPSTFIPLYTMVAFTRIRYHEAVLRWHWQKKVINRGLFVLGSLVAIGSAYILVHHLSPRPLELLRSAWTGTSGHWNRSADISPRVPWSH
compound,measurement,setting,value
"NC(CC(=O)c1ccc(Cl)c(Cl)c1)C(=O)O (racemic) [FCE 28833A, (R,S)-3,4-dichlorobenzoylalanine]",endogenous KYNA levels in rat brain tissue,kyn-3-OHase,dose-dependent elevation
same,endogenous kynurenine levels in rat brain tissue,kyn-3-OHase,dose-dependent elevation
same,IC50,rat kyn-3-OHase,290 nM
Nc1c(O)cccc1C(=O)O [3-hydroxyanthranilic acid],entry into the brain,brain [1],enters the brain very poorly
"O=C(O)c1cccnc1C(=O)O [QUIN, quinolinic acid]",convulsions,rats,caused convulsions
same,activity at excitatory amino acid receptor sites,[2],agonist
"O=C(O)c1cc(=O)c2ccccc2[nH]1 [KYNA, kynurenic acid]",affinity to the glycine modulatory site,glycine modulatory site,particularly high affinity
same,excitatory amino acid receptor antagonism,glycine modulatory site,effective excitatory amino acid receptor antagonist
same,properties when applied directly into the brain,brain [3],anticonvulsant and neuroprotective properties
